Values of other authors as cited in US20100196504A1, “SYNERGISTIC ACTIVE PREPARATIONS COMPRISING 1,2-DECANEDIOL AND FURTHER ANTIMICROBIAL ACTIVE COMPOUNDS” (SYMRISE GmbH & Co. KG, priority 2007, published 2010).

Legend:
Propionibacterium acnes = settings: microorganism causing acne
[1] = test system: Staphylococcus epidermidis; settings: microorganism causing body odour
Corynebacterium acnes = settings: microorganism causing body odour

Measured: antimicrobial activity

CCCCCCCCC(O)CO (stereo not drawn) [1,2-decanediol]
antimicrobial activity: all assays above
